How the values were obtained:
[1] = target: Fibroblast growth factor receptor 3 (Homo sapiens) (UniProt P22607); test: FGFR3 (h) Upstate kinase activity assay; conditions: Compound concentration 10.0 uM
[2] = target: Insulin-like growth factor 1 receptor (Homo sapiens) (UniProt P08069); test: IGF-1R (h) Upstate kinase activity assay; conditions: Compound concentration 10.0 uM
[3] = target: Mitogen-activated protein kinase 1 (Homo sapiens) (UniProt P28482); test: MAPK2 (h) Upstate kinase activity assay; conditions: Compound concentration 10.0 uM
Mitogen-activated protein kinase 1 (Homo sapiens), sequence (P28482 whole entry): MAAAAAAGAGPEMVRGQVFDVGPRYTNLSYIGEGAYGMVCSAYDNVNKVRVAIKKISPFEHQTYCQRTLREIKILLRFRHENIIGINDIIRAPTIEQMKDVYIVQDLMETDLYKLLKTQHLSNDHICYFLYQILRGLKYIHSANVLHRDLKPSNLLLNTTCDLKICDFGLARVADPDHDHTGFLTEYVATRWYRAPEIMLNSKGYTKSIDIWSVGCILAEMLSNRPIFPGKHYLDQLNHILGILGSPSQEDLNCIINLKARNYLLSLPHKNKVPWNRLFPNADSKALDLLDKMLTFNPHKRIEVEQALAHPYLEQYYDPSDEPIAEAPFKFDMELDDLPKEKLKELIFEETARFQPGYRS

[4] = target: T1, Serine/threonine-protein kinase 3 (Homo sapiens) (UniProt Q13188); test: MST2 (h) Upstate kinase activity assay; conditions: Compound concentration 10.0 uM
T1 sequence (whole entry): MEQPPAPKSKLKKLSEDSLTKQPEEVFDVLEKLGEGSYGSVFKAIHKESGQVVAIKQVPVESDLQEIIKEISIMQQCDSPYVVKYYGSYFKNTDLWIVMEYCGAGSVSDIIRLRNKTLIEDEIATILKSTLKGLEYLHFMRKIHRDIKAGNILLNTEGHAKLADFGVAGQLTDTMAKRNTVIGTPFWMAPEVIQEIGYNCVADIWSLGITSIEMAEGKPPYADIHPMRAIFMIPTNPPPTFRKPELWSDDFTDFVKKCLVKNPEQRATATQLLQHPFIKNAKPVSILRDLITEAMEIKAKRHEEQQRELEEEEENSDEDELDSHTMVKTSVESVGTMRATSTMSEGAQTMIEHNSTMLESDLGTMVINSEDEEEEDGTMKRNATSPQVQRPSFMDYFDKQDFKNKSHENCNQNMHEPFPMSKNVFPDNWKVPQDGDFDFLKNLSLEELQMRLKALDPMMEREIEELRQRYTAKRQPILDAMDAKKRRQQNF

[5] = target: T2, Serine/threonine-protein kinase D1 (Homo sapiens) (UniProt Q15139); test: PKCmu (h) Upstate kinase activity assay; conditions: Compound concentration 10.0 uM
T2 sequence (whole entry): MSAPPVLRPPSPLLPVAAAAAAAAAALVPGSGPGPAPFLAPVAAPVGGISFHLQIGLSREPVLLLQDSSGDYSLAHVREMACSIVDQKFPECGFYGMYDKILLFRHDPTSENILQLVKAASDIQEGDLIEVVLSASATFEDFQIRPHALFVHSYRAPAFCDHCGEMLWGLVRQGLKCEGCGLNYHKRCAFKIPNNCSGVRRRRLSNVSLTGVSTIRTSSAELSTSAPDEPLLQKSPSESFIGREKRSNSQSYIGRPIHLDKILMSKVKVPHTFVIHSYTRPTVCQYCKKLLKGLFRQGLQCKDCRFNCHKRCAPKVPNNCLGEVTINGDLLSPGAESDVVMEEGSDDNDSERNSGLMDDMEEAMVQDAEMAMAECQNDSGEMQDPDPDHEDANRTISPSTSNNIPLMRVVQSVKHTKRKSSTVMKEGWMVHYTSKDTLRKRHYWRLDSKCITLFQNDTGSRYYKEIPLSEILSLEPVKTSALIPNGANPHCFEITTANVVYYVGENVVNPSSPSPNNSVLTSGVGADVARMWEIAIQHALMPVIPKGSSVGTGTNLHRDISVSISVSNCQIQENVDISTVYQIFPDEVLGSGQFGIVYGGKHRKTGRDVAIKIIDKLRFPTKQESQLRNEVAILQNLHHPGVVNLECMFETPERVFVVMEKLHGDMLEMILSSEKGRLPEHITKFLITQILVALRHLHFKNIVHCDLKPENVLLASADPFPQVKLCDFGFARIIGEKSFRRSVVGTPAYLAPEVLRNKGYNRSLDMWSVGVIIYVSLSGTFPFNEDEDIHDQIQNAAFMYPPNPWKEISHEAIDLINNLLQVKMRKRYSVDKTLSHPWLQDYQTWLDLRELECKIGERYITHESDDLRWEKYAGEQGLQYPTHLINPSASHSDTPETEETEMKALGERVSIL

[6] = target: T3, MAP kinase-activated protein kinase 5 (Homo sapiens) (UniProt Q8IW41); test: PRAK (h) Upstate kinase activity assay; conditions: Compound concentration 10.0 uM
T3 sequence (whole entry): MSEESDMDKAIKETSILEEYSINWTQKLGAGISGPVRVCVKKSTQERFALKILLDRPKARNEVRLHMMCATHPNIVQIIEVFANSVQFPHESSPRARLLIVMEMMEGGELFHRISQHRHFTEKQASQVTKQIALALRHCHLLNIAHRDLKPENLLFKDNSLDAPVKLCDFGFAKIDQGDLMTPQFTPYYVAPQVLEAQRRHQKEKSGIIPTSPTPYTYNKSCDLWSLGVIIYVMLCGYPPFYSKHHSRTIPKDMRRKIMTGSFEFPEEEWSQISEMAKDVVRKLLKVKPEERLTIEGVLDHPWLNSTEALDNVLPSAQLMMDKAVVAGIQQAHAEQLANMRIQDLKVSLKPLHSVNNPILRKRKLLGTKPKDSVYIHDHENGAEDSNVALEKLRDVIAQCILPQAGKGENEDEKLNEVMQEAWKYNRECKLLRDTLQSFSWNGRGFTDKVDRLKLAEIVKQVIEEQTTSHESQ

[7] = target: Tyrosine-protein kinase SYK (Homo sapiens) (UniProt P43405); test: Syk (h) Upstate kinase activity assay; conditions: Compound concentration 10.0 uM
SK-N-MC = test: Neuroepithelioma SK-N-MC cell line MDS Pharma Services Proliferation Assay; assay type: functional, cell-based, Homo sapiens
PANC-1 = test: Pancreas PANC-1 cell line MDS Pharma Services Proliferation Assay; assay type: functional, cell-based, Homo sapiens
[8] = system: Epidermal growth factor receptor (Homo sapiens), P00533 [UNDEFINED MUTATION]; conditions: Compound concentration 100.0 nM
Epidermal growth factor receptor (Homo sapiens), P00533 [UNDEFINED MUTATION], sequence (P00533 whole entry, looked up, change not shown): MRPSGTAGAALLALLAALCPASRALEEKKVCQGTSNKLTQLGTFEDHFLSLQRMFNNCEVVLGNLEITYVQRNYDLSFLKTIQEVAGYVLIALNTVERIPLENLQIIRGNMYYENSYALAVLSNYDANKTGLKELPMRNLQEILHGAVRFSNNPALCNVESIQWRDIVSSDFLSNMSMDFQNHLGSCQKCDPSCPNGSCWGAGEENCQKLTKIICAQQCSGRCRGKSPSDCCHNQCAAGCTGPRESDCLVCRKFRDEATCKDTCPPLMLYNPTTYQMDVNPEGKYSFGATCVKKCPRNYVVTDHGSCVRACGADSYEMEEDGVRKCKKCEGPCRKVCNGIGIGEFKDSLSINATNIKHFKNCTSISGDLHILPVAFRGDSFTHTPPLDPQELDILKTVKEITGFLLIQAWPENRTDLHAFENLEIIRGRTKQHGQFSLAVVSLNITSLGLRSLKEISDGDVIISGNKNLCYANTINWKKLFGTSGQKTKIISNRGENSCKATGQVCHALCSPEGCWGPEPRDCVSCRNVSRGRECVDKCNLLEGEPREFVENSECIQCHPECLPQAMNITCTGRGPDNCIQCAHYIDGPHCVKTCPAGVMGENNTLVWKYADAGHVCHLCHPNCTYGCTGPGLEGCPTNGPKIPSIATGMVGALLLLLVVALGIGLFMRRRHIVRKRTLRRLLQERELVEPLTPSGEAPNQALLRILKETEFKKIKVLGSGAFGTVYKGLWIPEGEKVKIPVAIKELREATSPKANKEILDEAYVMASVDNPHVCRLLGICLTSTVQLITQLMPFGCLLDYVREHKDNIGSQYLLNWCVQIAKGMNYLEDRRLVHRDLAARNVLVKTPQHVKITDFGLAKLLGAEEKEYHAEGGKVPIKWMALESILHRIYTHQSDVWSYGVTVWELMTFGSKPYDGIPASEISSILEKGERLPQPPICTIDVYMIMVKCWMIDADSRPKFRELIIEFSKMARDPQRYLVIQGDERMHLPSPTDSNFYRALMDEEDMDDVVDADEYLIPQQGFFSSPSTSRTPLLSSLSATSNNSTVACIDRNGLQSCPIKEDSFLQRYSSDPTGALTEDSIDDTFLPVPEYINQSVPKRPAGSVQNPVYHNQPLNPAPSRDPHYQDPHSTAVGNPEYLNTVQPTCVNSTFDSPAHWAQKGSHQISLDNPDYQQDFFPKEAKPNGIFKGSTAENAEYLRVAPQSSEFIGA

[9] = target: Mitogen-activated protein kinase kinase kinase 20 (Homo sapiens) (UniProt Q9NYL2); conditions: Compound concentration 100.0 nM
Mitogen-activated protein kinase kinase kinase 20 (Homo sapiens), sequence (Q9NYL2 2-800 limits assumed): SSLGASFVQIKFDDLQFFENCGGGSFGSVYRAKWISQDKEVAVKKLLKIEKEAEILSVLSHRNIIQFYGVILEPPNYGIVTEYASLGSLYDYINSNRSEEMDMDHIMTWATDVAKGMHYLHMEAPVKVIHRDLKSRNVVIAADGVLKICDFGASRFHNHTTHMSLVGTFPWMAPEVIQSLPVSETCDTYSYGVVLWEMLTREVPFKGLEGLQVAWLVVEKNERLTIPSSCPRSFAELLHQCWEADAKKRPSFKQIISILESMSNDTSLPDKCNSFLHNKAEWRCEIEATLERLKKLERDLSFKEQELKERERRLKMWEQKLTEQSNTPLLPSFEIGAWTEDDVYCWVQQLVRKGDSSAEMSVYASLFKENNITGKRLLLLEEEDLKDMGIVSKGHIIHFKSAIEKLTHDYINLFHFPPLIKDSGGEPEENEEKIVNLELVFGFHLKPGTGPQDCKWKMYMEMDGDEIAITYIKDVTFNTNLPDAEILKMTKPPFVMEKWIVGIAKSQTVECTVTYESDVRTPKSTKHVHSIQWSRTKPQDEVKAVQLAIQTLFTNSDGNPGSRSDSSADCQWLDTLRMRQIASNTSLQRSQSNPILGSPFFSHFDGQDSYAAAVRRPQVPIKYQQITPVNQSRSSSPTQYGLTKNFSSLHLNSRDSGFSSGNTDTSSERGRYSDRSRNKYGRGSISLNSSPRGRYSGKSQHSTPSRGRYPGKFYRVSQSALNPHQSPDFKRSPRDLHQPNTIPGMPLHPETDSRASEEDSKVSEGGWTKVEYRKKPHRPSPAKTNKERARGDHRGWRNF

Fibroblast growth factor receptor 3 (Homo sapiens), sequence (P22607 23-806 limits assumed): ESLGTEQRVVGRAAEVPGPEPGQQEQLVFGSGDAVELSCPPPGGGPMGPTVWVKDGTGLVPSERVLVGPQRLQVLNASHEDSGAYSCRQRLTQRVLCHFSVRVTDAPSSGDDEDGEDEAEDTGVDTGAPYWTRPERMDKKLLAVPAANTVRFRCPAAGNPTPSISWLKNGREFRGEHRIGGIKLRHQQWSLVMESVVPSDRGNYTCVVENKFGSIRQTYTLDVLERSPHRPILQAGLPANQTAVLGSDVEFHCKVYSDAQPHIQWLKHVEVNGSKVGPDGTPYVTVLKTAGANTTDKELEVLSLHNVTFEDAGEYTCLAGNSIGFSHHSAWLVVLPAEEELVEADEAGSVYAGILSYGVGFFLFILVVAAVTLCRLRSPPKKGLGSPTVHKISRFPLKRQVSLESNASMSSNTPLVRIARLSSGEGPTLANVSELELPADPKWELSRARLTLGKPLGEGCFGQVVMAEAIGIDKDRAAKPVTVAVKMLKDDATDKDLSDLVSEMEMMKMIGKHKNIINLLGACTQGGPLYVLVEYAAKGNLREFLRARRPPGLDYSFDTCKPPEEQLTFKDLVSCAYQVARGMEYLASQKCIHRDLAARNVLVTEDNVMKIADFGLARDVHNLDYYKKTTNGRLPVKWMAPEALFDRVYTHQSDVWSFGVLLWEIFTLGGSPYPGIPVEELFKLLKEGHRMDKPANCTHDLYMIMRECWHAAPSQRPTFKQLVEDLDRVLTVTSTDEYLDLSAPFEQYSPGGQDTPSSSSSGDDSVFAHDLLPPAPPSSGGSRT
Insulin-like growth factor 1 receptor (Homo sapiens), sequence (P08069 31-736 limits assumed): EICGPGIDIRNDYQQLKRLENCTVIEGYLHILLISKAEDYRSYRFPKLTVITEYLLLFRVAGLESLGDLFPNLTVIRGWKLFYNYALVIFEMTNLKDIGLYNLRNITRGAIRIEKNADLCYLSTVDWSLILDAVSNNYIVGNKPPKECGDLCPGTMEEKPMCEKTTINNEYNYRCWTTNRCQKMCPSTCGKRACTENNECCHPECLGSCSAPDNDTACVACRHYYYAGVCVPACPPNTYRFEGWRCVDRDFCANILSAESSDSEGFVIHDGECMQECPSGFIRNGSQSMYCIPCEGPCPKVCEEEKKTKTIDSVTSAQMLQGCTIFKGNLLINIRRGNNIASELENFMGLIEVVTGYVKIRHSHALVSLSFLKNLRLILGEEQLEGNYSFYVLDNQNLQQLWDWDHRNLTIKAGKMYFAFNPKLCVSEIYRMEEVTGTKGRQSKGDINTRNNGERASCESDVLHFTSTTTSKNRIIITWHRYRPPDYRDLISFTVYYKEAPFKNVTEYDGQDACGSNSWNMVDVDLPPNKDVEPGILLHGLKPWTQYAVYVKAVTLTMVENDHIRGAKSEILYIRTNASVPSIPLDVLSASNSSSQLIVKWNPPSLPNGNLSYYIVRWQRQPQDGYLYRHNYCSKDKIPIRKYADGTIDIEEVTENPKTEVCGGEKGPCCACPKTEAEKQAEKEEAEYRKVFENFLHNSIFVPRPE
Insulin-like growth factor 1 receptor (Homo sapiens), sequence (P08069 741-1367 limits assumed): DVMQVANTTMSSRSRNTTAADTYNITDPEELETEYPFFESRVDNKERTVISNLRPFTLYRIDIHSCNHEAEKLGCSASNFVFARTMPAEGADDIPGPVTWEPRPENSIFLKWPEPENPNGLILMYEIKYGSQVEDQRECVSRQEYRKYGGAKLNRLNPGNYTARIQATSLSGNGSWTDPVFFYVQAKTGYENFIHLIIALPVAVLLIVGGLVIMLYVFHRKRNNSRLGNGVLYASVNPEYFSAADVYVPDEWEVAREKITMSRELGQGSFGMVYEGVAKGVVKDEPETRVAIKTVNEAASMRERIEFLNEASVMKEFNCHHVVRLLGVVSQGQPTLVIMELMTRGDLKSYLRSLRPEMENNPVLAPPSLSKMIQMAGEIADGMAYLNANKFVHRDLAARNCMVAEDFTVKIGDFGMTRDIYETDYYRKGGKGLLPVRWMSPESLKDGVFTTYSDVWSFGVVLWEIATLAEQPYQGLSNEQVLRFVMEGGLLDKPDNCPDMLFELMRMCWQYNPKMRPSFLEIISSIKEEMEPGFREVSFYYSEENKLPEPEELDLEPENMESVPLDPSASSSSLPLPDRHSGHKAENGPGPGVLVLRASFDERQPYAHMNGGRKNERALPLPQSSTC

**Q.** How did the inhibition [1] turn out when `Cc1c[nH]c2nccc(Oc3c(F)cc(Nc4cc(Cl)nc(N)n4)cc3F)c12` [BAY-549] was run?
**A.** Its inhibition is 12%.

**Q.** What about the inhibition [2] of the same compound?
**A.** The inhibition was 41%.

**Q.** And the inhibition [3]?
**A.** The inhibition was 17%.

**Q.** And the inhibition [4]?
**A.** The inhibition was 59%.

**Q.** And the inhibition [5]?
**A.** Its inhibition is 60%.

**Q.** And the inhibition [6]?
**A.** Its inhibition is 36%.

**Q.** What about the inhibition [7] of the same compound?
**A.** The inhibition was 20%.

**Q.** What about the IC50 (SK-N-MC; Homo sapiens, SK-N-MC) of the same compound?
**A.** The IC50 was 7.9 µM.

**Q.** What about the TGI (SK-N-MC; Homo sapiens, SK-N-MC) of the same compound?
**A.** The TGI was 20 µM.

**Q.** And the CC50 (SK-N-MC; Homo sapiens, SK-N-MC, read-out: LC50 (the source's name))?
**A.** The CC50 was 52 µM.

**Q.** What about the “Mean % growth (n = 2) for 10.0 µM probe concentration” value (SK-N-MC; ± SEM 3 % growth) of the same compound?
**A.** Its value is 38%.

**Q.** And the “Mean % growth (n = 2) for 0.1 µM probe concentration” value (SK-N-MC; ± SEM 4 % growth)?
**A.** The value was 103%.

**Q.** What about the “Mean % growth (n = 2) for 1.0 µM probe concentration” value (SK-N-MC; ± SEM 5 % growth) of the same compound?
**A.** The value was 98%.

**Q.** What about the “Mean % growth (n = 2) for 0.01 µM probe concentration” value (SK-N-MC; ± SEM 6 % growth) of the same compound?
**A.** The value was 103%.

**Q.** And the “Mean % growth (n = 2) for 100.0 µM probe concentration” value (SK-N-MC; ± SEM 8 % growth)?
**A.** The value was -72%.

**Q.** What about the TGI (PANC-1; Homo sapiens, PANC-1) of the same compound?
**A.** The TGI was 45 µM.

**Q.** And the CC50 (PANC-1; Homo sapiens, PANC-1, read-out: LC50 (the source's name))?
**A.** Its CC50 is over 100 µM.

**Q.** What about the “Mean % growth (n = 2) for 10.0 µM probe concentration” value (PANC-1; ± SEM 1 % growth) of the same compound?
**A.** Its value is 55%.

**Q.** And the “Mean % growth (n = 2) for 1.0 µM probe concentration” value (PANC-1; ± SEM 2 % growth)?
**A.** The value was 87%.

**Q.** What about the “Mean % growth (n = 2) for 0.1 µM probe concentration” value (PANC-1; ± SEM 3 % growth) of the same compound?
**A.** Its value is 86%.

**Q.** And the “Mean % growth (n = 2) for 0.01 µM probe concentration” value (PANC-1; ± SEM 8 % growth)?
**A.** Its value is 98%.

**Q.** And the “Mean % growth (n = 2) for 100.0 µM probe concentration” value (PANC-1; ± SEM 9 % growth)?
**A.** Its value is -31%.

**Q.** Which residual activity [8] does the source give for `Cn1cc(Cl)c2c(Oc3c(F)cc(Nc4cc(Cl)nc(N)n4)cc3F)ccnc21` [BAY-4900] here?
**A.** Its residual activity is 88%.

**Q.** What about the residual activity [9] of the same compound?
**A.** The residual activity was 97%.

From ChEMBL document CHEMBL4507274 (2021)
